Results as given in ChEMBL document CHEMBL5131518, “Discovery of 2-Phenylquinolines with Broad-Spectrum Anti-coronavirus Activity” (ACS Med Chem Lett, 2022).

Experiments:
in vitro [1] = conditions: monkey, Vero E6 cells
Description: Selectivity index, ratio of CC50 for cytotoxicity against African green monkey Vero E6 cells to EC50 for antiviral activity against SARS-CoV-2 infected in eGFP expressing African green monkey Vero E6 cells

[2] = Inhibition of SARS-CoV-2 RdRp expressed in Escherichia coli BL21 DE3 co-expressing […] incubated for 1 hr by fluorescent based assay; set-up: species or system Severe acute respiratory syndrome coronavirus 2
[3] = tested on: Severe acute respiratory syndrome coronavirus 2; assay: Inhibition of SARS-CoV-2 RdRp expressed in Escherichia coli BL21 DE3 co-expressing […] at 30 uM incubated for 1 hr by fluorescent bases assay
in vitro [4] = conditions: human, HEL 299 cells
Description: Selectivity index, ratio of CC50 for cytotoxicity against HEL 299 cells to EC50 for antiviral activity against HCoV-229E infected in HEL 299 cells

[5] = biological target: Replicase polyprotein 1ab (Severe acute respiratory syndrome coronavirus 2) (UniProt P0DTD1); assay: Inhibition of SARS-CoV-2 nsp13 ATPase-associated activity using ATP as substrate at highest concentration of compound incubated for 30 mins by Biomol Green Reagent based assay

SMILES | selectivity ratio (in vitro [1]) | IC50 [2] [µM] | inhibition [3] [%] | selectivity ratio (in vitro [4]) | inhibition [5] [%]
CCCOc1ccc(-c2cc(OCCN3CCN(Cc4ccccc4)CC3)c3cccc(OC)c3n2)cc1 | 2.8 |  |  |  | 
CCCOc1ccc(-c2cc(OCCN3CCCC3)c3cc(OC)cc(OC)c3n2)cc1 | > 16.9 | > 30 | 100 | > 2.5 | 
CCCOc1ccc(-c2cc(OCCN(CC)CC)c3c(OC)c(OC)c(OC)cc3n2)cc1 | 2.9 |  |  |  | 
CCCOc1ccc(-c2cc(OCCN(CC)CC)c3cc(OC)cc(OC)c3n2)cc1 | > 7.7 |  |  | 12.4 | 
CCCOc1ccc(-c2cc(OCCN3CCCC3)c3cc(OC)c(OC)cc3n2)cc1 | 1.3 |  |  |  | 
CCCOc1ccc(-c2cc(OCCN3CCCCC3)c3c(OC)ccc(OC)c3n2)cc1 | 8.8 | > 30 | 100 | 10.2 | 
CCCOc1ccc(-c2cc(OCCN3CCN(Cc4ccccc4)CC3)c3ccccc3n2)cc1 | > 8.4 |  |  | > 1.6 | 
CCCOc1ccc(-c2cc(OCCN3CCN(Cc4ccccc4)CC3)c3c(OC)cc(OC)cc3n2)cc1 | > 12.7 | > 30 | 100 | 16.4 | 
CCCOc1ccc(-c2cc(OCCN3CCCC3)c3c(OC)ccc(OC)c3n2)cc1 | 7.9 |  |  | 13.4 | 
C=CCn1c(S)nnc1CSc1ccccc1[N+](=O)[O-] |  |  |  |  | 90
CCCOc1ccc(-c2cc(OCCN(CC)CC)c3cccc(OC)c3n2)cc1 | > 11 |  |  | 8.2 | 
CCCOc1ccc(-c2cc(OCCN3CCNCC3)c3cccc(OC)c3n2)cc1 | 4.3 |  |  | 25.6 | 
CCCOc1ccc(-c2cc(OCCN3CCc4cc(OC)c(OC)cc4C3)c3c(OC)cc(OC)cc3n2)cc1 |  | > 30 |  |  | 
CCCOc1ccc(-c2cc(OCCN(CC)CC)c3cc(OC)c(OC)cc3n2)cc1 | 13.8 |  |  | 5.2 | 
CCCOc1ccc(-c2cc(OCCN(CC)CC)c3c(OC)ccc(OC)c3n2)cc1 | 5.3 |  |  | 13.8 | 
CCCOc1ccc(-c2cc(OCCN3CCCCC3)c3cc(OC)c(OC)cc3n2)cc1 | 4.3 |  |  | 52.4 | 
